Test results from US20190369122A1, “METABOLIC DISORDERS” (priority 2016, published 2019).

Tests used:
GF mice = assay: Intraperitoneal glucose tolerance test in GF mice; type: in vivo, mouse; details: 500 μg i.p. twice per day for 3 days
Protocol: (§1) An intraperitoneal glucose tolerance test (using 1 g glucose per kg body weight) was then performed after a 4 h fast. Blood glucose levels were measured from tail blood using HemoCue201+analyzer (HemoCue, Angelholm, Sweden). Liver and plasma samples were collected after a 4 h fast. Mice were under isoflurane anesthesia and killed by cervical dislocation. Fresh liver was taken and snap-frozen in liquid nitrogen and stored at −80° C. until protein extraction.

[1] = test system: G6pase, Pepck, Srebp1c, Fasn, Irs1, Irs2; assay: Hepatic gene expression in GF mice (real-time PCR); type: in vivo, mouse; details: 500 μg i.p. twice per day for 3 days
Protocol: as §1
Mouse liver was homogenized in RLT buffer with ([…] using TissueLyser (Qiagen, Hilden, Germany). RNA was isolated using the RNeasy Minikit (Qiagen) and reverse transcribed to synthesize cDNA using High Capacity cDNA Reverse Transcription Kit (Applied Biosystems, Foster City, Calif., USA) according to the manufacturer's protocol. Real-time PCR was performed using 1×SYBR Green Master Mix (Thermo Scientific, Waltham, Mass., USA) using the following primers.

CONVR mice = assay: Metabolic cages (PhenoMaster) in CONVR mice; type: in vivo, mouse; details: 100 μg i.p. twice a day for 3 days
Protocol: Mice were singly housed for two days before being transferred to the PhenoMaster cages, and allowed an additional 2 days to acclimatize to the new cage before taking measurements. Parameters were automatically measured every 15 min for 5 days. During the measurements, the mice had free access to water and food. […] Oxygen consumption (VO2) was calculated from measurements of oxygen and carbon dioxide concentration in the reference cage compared to the sample cage. Measurements of oxygen consumption and energy expenditure were adjusted to lean body mass, which was determined by MRI (EchoMRI, Houston, Tex., USA).

HEK293 cells = assay: siRNA knock-down in HEK293 cells, ImP-induced signaling; type: cell-based, human; details: HEK293 transfected with control or p38δ/p38γ siRNA
Protocol: HEK293 cells (ATCC CRL-1573) were grown and maintained in high-glucose (4.5 g/l glucose) DMEM with 10% (v/v) FBS. All HEK293 cell experiments were performed in serum-starved and amino acid-deprived conditions. 24 h after transfection (with plasmids or siRNA as indicated), HEK293 cells cultured in poly-L-lysine-coated 60 mm dishes were rinsed twice with DMEM without FBS and incubated in serum-free DMEM for 18 h. HEK293 cells were then washed once with EBSS and incubated in EBSS for 1 h.
FLAG mTOR and HA Raptor were kindly provided by Dr Sung Ho Ryu (Pohang University of Science and Technology, Pohang, South Korea). Myc-Rag GTPases constructs were gifts from Dr Do-Hyung Kim (University of Minnesota, Minn., USA). AIIStars negative control siRNA, p38δ siRNA1 (Hs_MAPK13_5 targeting […] (SEQ ID NO: 15)), p38δ siRNA2 (Hs_MAPK13_6 targeting […] (SEQ ID NO: 16)), p38γ siRNA1 (Hs_MAPK12_5 targeting […] (SEQ ID NO: 17)), p38γ siRNA2 (Hs_MAPK12_8 targeting […] (SEQ ID NO: 18)), p38α siRNA (Hs_MAPK14_5 targeting […] (SEQ ID NO: 21)), p38β siRNA (Hs_MAPK11_6 targeting […] (SEQ ID NO: 22)), S6K1 siRNA (Hs_RPS6KB1_5 targeting […] (SEQ ID NO: 23)) and Raptor siRNA (Hs_RPTOR_1 targeting […] (SEQ ID NO: 24)) (Qiagen, Valencia, Calif.) were transfected into HEK293 cells using Lipofectamin 2000 according to the manufacturer's instructions.

mTORC2 [2] = target: T1, mTORC2 (Homo sapiens, UniProt P42345); assay: mTORC2 kinase activity assay; type: biochemical
T1 construct: expressed in transfected cells; host or cells: HEK293
Protocol: HEK293 cells were transfected with 1 μg of HA Rictor and 0.5 μg of Flag mTOR for mTORC2 activity assay, lysed with 0.3% CHAPS-containing lysis buffer, sonicated and centrifuged at 20,000 g for 15 min at 4° C., and the supernatant was incubated with 2 μg of anti-HA antibody at 4° C. for overnight under gentle agitation. Immunocomplexes were then collected with protein A-Sepharose beads (RepliGen, Needham, Mass.) at 4° C. for 2 h and washed three times with 0.3% CHAPS-containing lysis buffer. […] Kinase reaction was started by adding 100 μM ATP for 15 min at 37° C. and stopped by adding 5× Laemmli buffer.

[3] = Targeted measurements in portal and peripheral blood, first cohort; details: human portal vs peripheral blood
Description: Two human cohorts were used in this study. The first cohort comprised five obese subjects with type 2 diabetes and ten BMI-matched subjects without type 2 diabetes who were undergoing laparoscopic Roux-and-Y gastric bypass surgery at the Slotervaart Hospital, Amsterdam, the Netherlands, see Table 2. Subjects were fasted overnight before the morning of the surgery, and a peripheral venous sample was taken just before the patient went into the operating room. Anthropometric measurements and a stool sample were also taken before surgery. During the surgery, a portal vein sample (vena puncture) was taken as previously described. Fasting glucose (by glucose meters, Roche Diagnostics), insulin (by an electrochemiluminescence immunoassay, Roche Modular System) and HbA1c (Menarini Diagnostic) were measured in the peripheral blood. All participants gave informed consent before the surgery and the protocol was approved by the Medical Ethical Committee of the Slotervaart Hospital, Amsterdam, the Netherlands.
The samples were then reconstituted with 5% HCl in n-butanol at 70° C. for 1 h, allowing n-butyl ester to be formed. […] Samples (5 μl) were injected onto a C18 BEH column (2.1×100 mm with 1.7 μm particles; Waters, Milford, Mass.) using a gradient consisting of water with 0.1% formic acid (A-phase) and acetonitrile with 0.1% formic acid (B-phase). […]

mTORC2 [4] = assay: mTOR modification in mTORC2 (Rictor immunoprecipitation), HEK293; type: cell-based, human
Protocol: Snap-frozen liver and harvested cells were lysed in buffer containing 50 mM Tris-HCl (pH 7.4), 150 mM NaCl, 1 mM EDTA, 1 mM Na3VO4, 20 mM NaF, 10 mM glycerophosphate, 1 mM PMSF, 10% glycerol, 1% Triton X-100 and protease inhibitor cocktail. For immunoprecipitation, the cell lysates were obtained in 0.3% CHAPS-containing lysis buffer, sonicated and centrifuged at 20,000 g for 15 min at 4° C., and the supernatant was incubated with 20 μl of anti-FLAG beads (Sigma) at 4° C. for 4 h under gentle agitation.

For `O=C(O)CCc1cnc[nH]1` [imidazole propionate], the glucose tolerance (GF mice) was “significant glucose intolerance”, the “hepatic Irs1 and Irs2 mRNA levels” value [1] was “no significant changes” and the “hepatic expression of Srebp1c and Fasn” value [1] was “did not affect”. For the same compound, the “hepatic expression of G6pase and Pepck” value ([1]; vs controls) was “significantly increased”, the “energy expenditure in the early dark phase” value (CONVR mice) was “significantly reduced” and the total locomotor activity (CONVR mice) was “not significantly reduced”. The DEPTOR level (HEK293 cells) was “not affected”, the “in vitro mTORC2 kinase activity towards Akt” value (mTORC2 [2]) was “not altered” and the “metabolism inferred from similar portal and peripheral blood concentrations” value [3] was “not metabolized”. For the same compound, the “modulation of mTORC2” value (mTORC2 [4]; HEK293, 2 h incubation) was “not” and the “mTOR S2448 or S2481 phosphorylation in mTORC2” value (mTORC2 [4]; Rictor immunoprecipitation) was “unaffected”.
